Test [1] has as its system DBA/1J mice with collagen induced arthritis. As to the kind of experiment: Arthritic mice: administration by osmotic pumps. The test is classed as in vivo. The conditions noted are these: sub-cutaneous osmotic pumps, 240 μg/mouse/24 h, 26 days. How it is done: The experiment was performed in DBA/1J mice, in which arthritis was developed by injection of collagen emulsion, as described in Example 26.
The animals were divided into two groups, viz. a control group and a test compound treated group, having 6 animals each. The clear solution of test compound was prepared in 100% dimethyl sulfoxide (DMSO) and then DMSO concentration was brought down to 25% by addition of appropriate quantities of ethanol and polyethylene glycol 400 (PEG 400), so that the proportion of each solvent in a final solution v/v was 25:15:60::DMSO:EtOH:PEG-400. By this method absolutely clear solution of the compound having a final concentration of 40 mg/mL was obtained. This solution was filtered through 0.2μ filter and was filled in osmotic pumps (Alzet micro-osmotic pump model 1002). The delivery rate of this model of pump is 0.25 μL per hour and it remains functional for 14 days.
These pumps were then implanted sub-cutaneously in the animals of the test compound treated group (240 μg/mouse/24 h). The pumps filled with blank solvent were implanted sub-cutaneously in the animals of control group. Thereafter, their paws were scored for arthritic indices, in addition to measurement of thickness, daily once. After 14 days, the pumps were replaced with freshly filled pumps and the experiment was continued for next 12 days (total 26 days).

Another test relates to IL-6. Kind of test: Cytokine release assay in hPBMCs: IL-6. Format: cell-based. The conditions noted are these: Homo sapiens. How it is done:
hPBMCs were obtained from healthy donors by centrifugation of heparinized venous blood over Ficoll/Hypaque solution (Histopaque-1077, Sigma, USA). Isolated hPBMCs were suspended in RPMI 1640 culture medium supplemented with 10% FBS and seeded at a density of 50,000 cells/well in a 96-well plate (Nunc, USA). The cells were incubated at 37° C., 5% CO2 for a period of 24 h. These cells were used for the lymphocyte proliferation as well as cytokine release assay.
The plated cells were treated with different concentrations of the test compound (prepared as mM stock in DMSO and diluted with DMSO to achieve the following final concentrations in the assay: 100, 10, 1, 0.1, 0.01, 0.001, 0.0001, 0.00001 and 0.000001 μM) and incubated for 30 min. The cells were then stimulated with PHA (prepared as 1 mg/mL stock in RPMI 1640 culture medium and used at a final concentration of 5 μg/mL). FK506 was used as a standard. The plates were incubated at 37° C., 5% CO2 for 48 h. The cytokines in the supernatant collected were detected using ELISA kit (BD biosciences, USA). The cytokines evaluated in the assay were TNF-α, IL-2, IL-6, and IFN-γ.

The next test concerns TNF-α. As to the kind of experiment: Human monocyte assay (LPS-induced): TNF-α. Format: cell-based. The conditions noted are these: LPS stimulated human monocytes, 5 h. From the text:
The assay was designed as in reference, Physiological Research, 52, 593-598, (2003), the disclosure of which is incorporated by reference for the teaching of the assay.
The objective of the assay is to determine whether compounds of the present invention—mediated inhibition of LPS-induced cytokines from monocytic THP-1 cell line translates to physiologically relevant human cells. Accordingly, the effect of compounds of the present invention on LPS—induced cytokine production from freshly isolated human monocytes was ascertained.
Peripheral blood was collected from healthy donors into potassium EDTA vacutainer tubes (BD Biosciences, USA). hPBMCs were isolated using density gradient separation (Histopaque-1077; Sigma, USA) and suspended in assay medium which is RPMI culture medium (Sigma, USA) containing 10% heat inactivated FBS (JRH Biosciences, Australia), 100 U/mL penicillin (Sigma, USA) and […] streptomycin (Sigma, USA). Monocytes in the hPBMCs were counted using a Coulter Counter following which the cells were resuspended at 2×10^5 monocytes/mL of assay medium. A cell suspension containing 2×10^4 monocytes was aliquoted per well of a 96-well plate (Nunc, USA). Subsequently, the hPBMCs were incubated for 4-5 h at 37° C., 5% CO2. […] The IC50 values were calculated by a nonlinear regression method using Graph Pad software (Prism 3.03).

Consider one compound from patent publication US20120225889A1, “USE OF MACROCYCLIC LACTONE DERIVATIVES FOR THE TREATMENT OF INFLAMMATORY DISORDERS” (PIRAMAL LIFE SCIENCES LIMITED, priority 2010, published 2012).

Read-outs that look alike come from different tables or passages of the source.

Usually IC50 stands for the midpoint of a concentration-inhibition curve. As for `C/C=C/C(O)C(C)/C=C/C(=N\O)C(C)C(O)C(C)C1OC(=O)/C(OC)=C/C(C)=C/C(C)C(O)C(CC)C(O)C(C)C/C(C)=C/C=C/C1OC` (stereo not shown) [Compound of example 7, (3Z,5E,13E,15E)-18-((5Z,6E,10E)-3,9-Dihydroxy-5-(hydroxymino)-4,8-dimethyldodeca-6,10-dien-2-yl)-9-ethyl-8,10-dihydroxy-3,17-dimethoxy-5,7,11,13-tetramethyl oxacyclooctadeca-3,5,13,15-tetraen-2-one], the “severity of arthritis (arthritic scores and paw thickness)” value in test [1] is recorded as “reduces severity of arthritis”. Also, the concentration for half-maximal inhibition (IC50) in the test on IL-6 (Table 3: PHA-PMA induced hPBMC's, 48 h, read-out: IL-6 IC50) is 10 nM; with IL-6 (Table 4: mitogen stimulated production from hPBMC's, read-out: IL-6 (IC50 μM)) it was 0.007 nM; in the test on TNF-α it was 10000 nM.
